According to US20240300923A1, “IRAK4 Inhibitors” (ASTRAZENECA AB, priority 2022, published 2024):

Experiments:
IRAK4 [1] = target: T1, IRAK4 (Homo sapiens (Human), UniProt Q9NWZ3); assay: IRAK4 phosphorylation cell assay (IL-1β-stimulated Karpas-299 cells); format: cell-based; details: IRAK4 auto-phosphorylation (pIRAK4 Thr345/Ser346) in IL-1β-stimulated Karpas-299 cells; geometric mean of at least 2 experiments
Method: IRAK4 Phosphorylation Cell Assay
The activation of IRAK4 by TLR or IL-1R ligands leads to IRAK4 auto-phosphorylation, which can be prevented by IRAK4 kinase inhibitors. The effect of IRAK4 inhibitor compounds on IRAK4 auto-phosphorylation was assessed in IL-1β-stimulated Karpas-299 cells as a measurement of cellular potency. Karpas-299 cells were cultured in RPMI 1640 (Gibco 61870-010) containing 10% FBS (Gibco #10270). Cells were plated at 2×10^4 cells per well in poly-D-lysine coated 384 well plates (Corning #356663) to which compounds had been added at various concentrations (10 point half log dose response with a final top concentration of 30 μM) using an Echo 655 (Labcyte Inc). Cells were centrifuged (250 g, 4 mins), incubated at 37° C. for 1 h, then stimulated with 22.7 ng/mL recombinant IL-1β (R&D Systems, #201-LB-025) at 37° C. for 10 mins, followed by fixation in 4% paraformaldehyde for 20 mins and permeabilization in ice-cold 70% MeOH in PBS for 30 mins. Cells were washed twice with phosphate-buffered saline (PBS) on a BlueWasher (BlueCatBio) then blocked with PBS containing 10% FBS for 20 mins. Blocking solution was removed with a BlueWasher and cells were stained with anti-pIRAK4 (Thr345/Ser346) (CST, #11927, 1:400) in blocking buffer with 0.05% Tween-20 for 1 h, then washed twice with PBS containing 0.05% Tween-20 on a BlueWasher, followed by staining with a Alexa 647-conjugated secondary anti-rabbit IgG antibody (CST, #4414, 1:2,000) and Hoechst 33342 (Sigma, 1:2,000) in blocking buffer with 0.05% Tween-20 for 30 mins. Finally, the cells were washed twice with PBS containing 0.05% Tween-20 and imaged on an ImageXpress Micro (Molecular Devices) with a 10× air objective using the appropriate filters. Images were analysed in Columbus (PerkinElmer) and the fluorescence intensity per cell from the secondary antibody was quantified. The quantified data were analysed in Genedata Screener 19 (Genedata AG). […] IC50 values are the geometric mean of at least 2 experiments.

IRAK4 [2] = target: T1, IRAK4; assay: IRAK4 enzyme assay (mass spectrometry readout); format: biochemical; details: human recombinant IRAK4 0.2 nM, 3 mM ATP; geometric mean of at least 2 experiments
Method: Potency of IRAK4 Inhibitor Compounds in IRAK4 Enzyme Assay
The inhibitory activity of compounds against IRAK4 were determined in an enzymatic assay using mass spectrometry readout. Ten point half-log compound concentration response curves, with a top concentration of 1 μM or 10 μM, were generated from 10 mM stocks of compound solubilized in DMSO using an Echo 655 (Labcyte Inc) and added to 384 well assay plates (Greiner #781280). To the assay plates, 10 μL of human recombinant IRAK4 protein (Life Technologies #PV4002) diluted to a final concentration of 0.2 nM in assay buffer (50 mM Tris-HCl pH 7.4, 10 mM MgCl, 5 mM glutathione, 0.01% BSA, 3 mM ATP) was added. The enzyme was incubated with the compounds at room temperature for 15 minutes before a peptide substrate ([…], Innovagen custom synthesis, 10 mM in DMSO) was added to each well to a final concentration of 10 μM using an Echo 655 (Labcyte Inc). After two hours at room temperature, the reaction was stopped with 65 μL of 0.4% formic acid (Merck #33015). The unphosphorylated and phosphorylated peptide were measured by LC-MS/MS on a Waters TQ-S mass spectrometer. Peaks were integrated using the TargetLynx software and the ratios between phosphorylated and unphosphorylated peptides were calculated. Curves were fitted and compound potencies determined in Genedata Screener 19 (Genedata AG). IC50 values are the geometric mean of at least 2 experiments.

human cKit kinase = human cKit kinase (Homo sapiens (Human), UniProt P10721); assay: cKit enzyme assay (LANCE, Eurofins CEREP); format: biochemical; details: human recombinant enzyme, 50 μM ATP; geometric mean of at least n=2, * = single experiment
Sequence of human cKit kinase (P10721 26-976): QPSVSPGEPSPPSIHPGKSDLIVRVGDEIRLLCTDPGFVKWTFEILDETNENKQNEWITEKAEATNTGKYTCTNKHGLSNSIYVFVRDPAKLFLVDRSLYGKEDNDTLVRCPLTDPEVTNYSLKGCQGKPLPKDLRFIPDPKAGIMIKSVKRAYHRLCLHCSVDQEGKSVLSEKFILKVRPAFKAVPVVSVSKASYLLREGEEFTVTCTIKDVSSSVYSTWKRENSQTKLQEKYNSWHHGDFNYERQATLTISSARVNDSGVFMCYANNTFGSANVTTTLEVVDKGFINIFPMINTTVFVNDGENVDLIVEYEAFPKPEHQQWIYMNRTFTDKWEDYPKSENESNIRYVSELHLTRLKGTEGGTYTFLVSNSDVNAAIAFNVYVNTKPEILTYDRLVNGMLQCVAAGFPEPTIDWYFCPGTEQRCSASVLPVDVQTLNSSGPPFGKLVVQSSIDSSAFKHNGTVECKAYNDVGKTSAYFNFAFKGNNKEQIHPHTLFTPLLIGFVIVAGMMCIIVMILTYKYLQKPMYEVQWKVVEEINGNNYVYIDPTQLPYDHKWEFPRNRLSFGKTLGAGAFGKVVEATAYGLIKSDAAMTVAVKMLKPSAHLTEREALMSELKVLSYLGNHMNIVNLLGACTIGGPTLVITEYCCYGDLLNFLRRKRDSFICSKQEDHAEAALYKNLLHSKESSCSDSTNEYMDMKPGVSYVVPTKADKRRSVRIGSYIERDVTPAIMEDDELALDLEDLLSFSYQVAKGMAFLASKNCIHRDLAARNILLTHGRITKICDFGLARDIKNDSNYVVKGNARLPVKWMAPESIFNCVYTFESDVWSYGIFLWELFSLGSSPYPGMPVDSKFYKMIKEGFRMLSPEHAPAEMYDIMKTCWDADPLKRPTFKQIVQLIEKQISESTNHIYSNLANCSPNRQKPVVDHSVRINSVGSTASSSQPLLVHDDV
Method: Potency of IRAK4 Inhibitor Compounds in cKit Enzyme Assay
Evaluation of the effects of the IRAK4 inhibitor compounds on the activity of the human cKit kinase quantified by measuring the phosphorylation of the substrate Ulight-TK peptide using a human recombinant enzyme and the LANCE® detection method at Eurofins CEREP, catalog item 3070, SOP no 1C768: The test compound, reference compound or water (control) are mixed with the enzyme (0.38 ng) in a buffer containing 40 mM Hepes/Tris (pH 7.4), 0.8 mM EGTA/Tris, 8 mM MgCl2, 1.6 mM DTT and 0.008% Tween 20. Thereafter, the reaction is initiated by adding 100 nM of the substrate Ulight-TK peptide and 50 μM ATP, and the mixture is incubated for 30 min at room temperature. For control basal measurements, the enzyme is omitted from the reaction mixture. Following incubation, the reaction is stopped by adding 13 mM EDTA. After 5 min, the anti-phopho-PT66 antibody labeled with europium chelate is added. After 60 more min, the fluorescence transfer is measured at lex=337 nm, lem=620 nm and lem=665 nm using a microplate reader (Envision, Perkin Elmer). The enzyme activity is determined by dividing the signal measured at 665 nm by that measured at 620 nm (ratio). The results are expressed as a percent inhibition of the control enzyme activity. The standard inhibitory reference compound is staurosporine, which is tested in each experiment at several concentrations to obtain an inhibition curve from which its IC50 value is calculated.
Data presented are the geometric mean of at least n=2, or as denoted by an*are obtained from a single experiment. […] Kinase selectivity can be a key determinant of clinical utility as off target toxicity can be reduced or eliminated.

T1 sequence (Q9NWZ3 whole entry): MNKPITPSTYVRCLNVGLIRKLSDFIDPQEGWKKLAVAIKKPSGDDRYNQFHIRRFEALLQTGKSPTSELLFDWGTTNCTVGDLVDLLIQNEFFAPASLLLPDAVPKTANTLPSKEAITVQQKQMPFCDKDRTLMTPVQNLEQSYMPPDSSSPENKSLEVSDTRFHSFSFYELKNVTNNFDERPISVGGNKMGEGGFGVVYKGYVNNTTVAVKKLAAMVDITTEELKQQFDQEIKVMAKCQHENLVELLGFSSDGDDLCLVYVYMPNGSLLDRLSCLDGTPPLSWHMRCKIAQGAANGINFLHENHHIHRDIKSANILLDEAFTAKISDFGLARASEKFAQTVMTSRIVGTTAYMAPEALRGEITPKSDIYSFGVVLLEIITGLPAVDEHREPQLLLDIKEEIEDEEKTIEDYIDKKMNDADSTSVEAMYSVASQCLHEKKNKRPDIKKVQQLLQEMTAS

Row | Structure (SMILES) | IC50 (IRAK4 [1]) | IC50 (IRAK4 [2]) | IC50 (human cKit kinase)
1 | COc1cc2nn([C@H]3CC[C@H](N4CCN(C)C4=O)CC3)cc2cc1C(=O)Nc1cccn(C)c1=O [Example 19, 6-Methoxy-N-(1-methyl-2-oxo-1,2-dihydropyridin-3-yl)-2-((1r,4r)-4-(3-methyl-2-oxoimidazolidin-1-yl)cyclohexyl)-2H-indazole-5-carboxamide] | 34 nM | 0.9 nM | 10600 nM
2 | COc1cc2nn(C3CCC(c4cccnn4)CC3)cc2cc1C(=O)Nc1cccn(C)c1=O (single isomer, unassigned) [Example 23, 6-Methoxy-N-(1-methyl-2-oxo-1,2-dihydropyridin-3-yl)-2-(4-(pyridazin-3-yl)cyclohexyl)-2H-indazole-5-carboxamide] | 185 nM | 5 nM | 
3 | COc1cc2nn([C@@H]3CC[C@@H](N(C)C(C)=O)C[C@@H]3C)cc2cc1C(=O)Nc1cccn(C)c1=O [Example 4, 6-Methoxy-N-(1-methyl-2-oxo-1,2-dihydropyridin-3-yl)-2-((1R,2S,4R)-2-methyl-4-(N-methylacetamido)cyclohexyl)-2H-indazole-5-carboxamide] | 67 nM | 3.9 nM | 18300 nM
4 | COc1cc2nn([C@H]3CC[C@H](N(C)C(C)=O)CC3)cc2cc1C(=O)Nc1cccn(C)c1=O [Example 1, 6-Methoxy-N-(1-methyl-2-oxo-1,2-dihydropyridin-3-yl)-2-((1r,4r)-4-(N-methylacetamido)cyclohexyl)-2H-indazole-5-carboxamide] | 30 nM | 1.1 nM | 13000 nM
5 | COc1cc2nn([C@H]3CC[C@H](N(C)C(=O)[C@@H](C)O)CC3)cc2cc1C(=O)Nc1cccn(CC#N)c1=O [Example 10, N-(1-(Cyanomethyl)-2-oxo-1,2-dihydropyridin-3-yl)-2-((1R,4r)-4-((R)-2-hydroxy-N-methylpropanamido)cyclohexyl)-6-methoxy-2H-indazole-5-carboxamide] | 37 nM | 1.4 nM | 2500 nM
6 | COc1cc2nn([C@H]3CC[C@H](n4cc(C(C)(C)O)nn4)CC3)cc2cc1C(=O)Nc1cccn(C)c1=O [Example 30, 2-((1r,4r)-4-(4-(2-Hydroxypropan-2-yl)-1H-1,2,3-triazol-1-yl)cyclohexyl)-6-methoxy-N-(1-methyl-2-oxo-1,2-dihydropyridin-3-yl)-2H-indazole-5-carboxamide] | 22 nM | 1 nM | 6900 nM
7 | COc1cc2nn([C@@H]3CC[C@H](N(C)C(C)=O)C[C@@H]3C)cc2cc1C(=O)Nc1cccn(C)c1=O (single isomer, unassigned) [Example 6] | 2880 nM | 199 nM | 
8 | COc1cc2nn([C@H]3CC[C@H](n4ccnc4C(C)O)CC3)cc2cc1C(=O)Nc1cccn(C)c1=O (single isomer, unassigned) [Example 28, 2-((1r,4r)-4-(2-(1-hydroxyethyl)-1H-imidazol-1-yl)cyclohexyl)-6-methoxy-N-(1-methyl-2-oxo-1,2-dihydropyridin-3-yl)-2H-indazole-5-carboxamide] | 31 nM | 0.5 nM | 10600 nM
9 | COc1cc2nn([C@H]3CC[C@H](c4nnco4)CC3)cc2cc1C(=O)Nc1cccn(C)c1=O [Example 25, 2-((1r,4r)-4-(1,3,4-Oxadiazol-2-yl)cyclohexyl)-6-methoxy-N-(1-methyl-2-oxo-1,2-dihydropyridin-3-yl)-2H-indazole-5-carboxamide] | 45 nM | 1.7 nM | > 100000 nM
10 | COc1cc2nn([C@@H]3CC[C@H](N(C)C(C)=O)C[C@@H]3C)cc2cc1C(=O)Nc1cccn(C)c1=O (single isomer, unassigned) [Example 7] | 4500 nM | 459 nM | 
11 | COc1cc2nn([C@@H]3CCC(N(C)C(C)=O)C[C@H]3C)cc2cc1C(=O)Nc1cccn(C)c1=O (single isomer, unassigned) [Example 2] | 238 nM | 10.7 nM | 

These reach a lower IC50 (IRAK4 [1]). Values come first.

Row | IC50 (IRAK4 [1]) | IC50 (IRAK4 [2]) | IC50 (human cKit kinase) | Structure (SMILES)
12 | 17 nM | 1.2 nM | 88100 nM | COc1cc2nn(C3CCC(c4cccnn4)CC3)cc2cc1C(=O)Nc1cccn(C)c1=O (single isomer, unassigned) [Example 24, 6-Methoxy-N-(1-methyl-2-oxo-1,2-dihydropyridin-3-yl)-2-(4-(pyridazin-3-yl)cyclohexyl)-2H-indazole-5-carboxamide]
13 | 15 nM | 0.4 nM | 3300 nM | COc1cc2nn([C@H]3CC[C@H](N(C)C(=O)[C@@H](C)O)CC3)cc2cc1C(=O)Nc1cccn(CF)c1=O [Example 9, N-(1-(Fluoromethyl)-2-oxo-1,2-dihydropyridin-3-yl)-2-((1R,4r)-4-((R)-2-hydroxy-N-methylpropanamido)cyclohexyl)-6-methoxy-2H-indazole-5-carboxamide]
14 | 15 nM | 0.3 nM |  | COc1cc2nn([C@H]3CC[C@H](N(C)C(=O)[C@@H](C)O)CC3)cc2cc1C(=O)Nc1cccn(-c2cn[nH]c2)c1=O [Example 14, 2-((1R,4r)-4-((R)-2-Hydroxy-N-methylpropanamido)cyclohexyl)-6-methoxy-N-(2-oxo-1-(1H-pyrazol-4-yl)-1,2-dihydropyridin-3-yl)-2H-indazole-5-carboxamide]
15 | 19 nM | 0.6 nM | 8400 nM | COc1cc2nn([C@H]3CC[C@H](n4ccnc4C(C)O)CC3)cc2cc1C(=O)Nc1cccn(C)c1=O (single isomer, unassigned) [Example 29, 2-((1r,4r)-4-(2-(1-hydroxyethyl)-1H-imidazol-1-yl)cyclohexyl)-6-methoxy-N-(1-methyl-2-oxo-1,2-dihydropyridin-3-yl)-2H-indazole-5-carboxamide]
16 | 21 nM | 0.7 nM | 13700 nM | COc1cc2nn([C@@H]3CCC(N(C)C(C)=O)C[C@H]3C)cc2cc1C(=O)Nc1cccn(C)c1=O (single isomer, unassigned) [Example 3]
17 | 20 nM | 0.4 nM |  | COc1cc2nn([C@H]3CC[C@]4(CC3)COC(=O)N4C)cc2cc1C(=O)Nc1cccn(C)c1=O [Example 21, 6-Methoxy-N-(1-methyl-2-oxo-1,2-dihydropyridin-3-yl)-2-((5r,8r)-1-methyl-2-oxo-3-oxa-1-azaspiro[4.5]decan-8-yl)-2H-indazole-5-carboxamide]
